Experimental data: PubChem BioAssay AID256 (DTP/NCI, 2004)
Several values for one entry are separate records, joined by “and”; a condition that tells them apart may be missing. Equal values may be shown once. Toxic doses and inconclusive results are not listed. Rule for the calls: active = survival T/C of 150% or more; inactive = T/C below 125% in these data. Non-standard residues stand in square brackets, D forms with d. Residues, ends and D or L forms follow the SMILES beside them. ξ: configuration not given here. ξF = NC(Cc1ccccc1)C(=O)O; Ac5c = NC1(C(=O)O)CCCC1

System: CD2F1 mice, L1210 leukemia ip, survival T/C
Test: NCI In Vivo Anticancer Drug Screen. Data for tumor model L1210 Leukemia (intraperitoneal) in CD2F1 (CDF1) mice
Conditions: higher = longer survival
How it was run: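 Antitumor effect is scored in animals hosting a serially transplanted tumor. Values compare compound-dosed animals against vehicle-only controls as a simple quotient.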

[1] = endpoint: mean survival time, dose: 100.0 mg/kg/injection, schedule: Q04DX002 (ip), vehicle: saline with Tween-80
[2] = endpoint: mean survival time, dose: 200.0 mg/kg/injection, schedule: Q04DX002 (ip), vehicle: saline with Tween-80
[3] = endpoint: mean survival time, dose: 400.0 mg/kg/injection, schedule: Q04DX002 (ip), vehicle: saline with Tween-80
[4] = endpoint: mean survival time, dose: 100.0 mg/kg/injection, schedule: Q01DX009 (ip), vehicle: saline with Tween-80
[5] = endpoint: mean survival time, dose: 200.0 mg/kg/injection, schedule: Q01DX009 (ip), vehicle: saline with Tween-80
[6] = endpoint: mean survival time, dose: 400.0 mg/kg/injection, schedule: Q01DX009 (ip), vehicle: saline with Tween-80
[7] = endpoint: mean survival time, dose: 100.0 mg/kg/injection, schedule: Q04DX003 (ip), vehicle: saline with Tween-80
[8] = endpoint: mean survival time, dose: 200.0 mg/kg/injection, schedule: Q04DX003 (ip), vehicle: saline with Tween-80
[9] = endpoint: mean survival time, dose: 200.0 mg/kg/injection, schedule: Q01DX009 (ip), vehicle: other
[10] = endpoint: mean survival time, dose: 100.0 mg/kg/injection, schedule: Q01DX009 (ip), vehicle: saline
[11] = endpoint: mean survival time, dose: 200.0 mg/kg/injection, schedule: Q01DX009 (ip), vehicle: saline
[12] = endpoint: mean survival time, dose: 100.0 mg/kg/injection, schedule: Q01DX001 (ip), vehicle: saline with Tween-80
[13] = endpoint: mean survival time, dose: 200.0 mg/kg/injection, schedule: Q01DX001 (ip), vehicle: saline with Tween-80
[14] = endpoint: mean survival time, dose: 400.0 mg/kg/injection, schedule: Q01DX001 (ip), vehicle: saline with Tween-80

Measured: T/C

CNC(=S)N1CCSN1NC
inactive: [1] 91 % of control | [2] 95 % of control | [3] 86 % of control

CCOC(=O)NNC(=O)Nc1ccccc1F
inactive: [4] 104 % of control | [5] 88 % of control | [6] 94 % of control

CC(=O)OC1CCCC2=CC(=O)CCC21C (stereo unspecified)
inactive: [7] 96 % of control | [8] 92 % of control

[Cl][Pt+2][Cl].[NH-]c1ccc(F)c(Cl)c1.[NH-]c1ccc(F)c(Cl)c1
inactive: endpoint: mean survival time, dose: 3.13 mg/kg/injection, schedule: Q04DX003 (ip), vehicle: distilled water + Tween-80 108 % of control | endpoint: mean survival time, dose: 6.25 mg/kg/injection, schedule: Q04DX003 (ip), vehicle: distilled water + Tween-80 103 % of control | endpoint: mean survival time, dose: 12.5 mg/kg/injection, schedule: Q04DX003 (ip), vehicle: distilled water + Tween-80 110 % of control | endpoint: mean survival time, dose: 25.0 mg/kg/injection, schedule: Q04DX003 (ip), vehicle: distilled water + Tween-80 110 % of control | endpoint: mean survival time, dose: 50.0 mg/kg/injection, schedule: Q04DX003 (ip), vehicle: distilled water + Tween-80 110 % of control

O=C1C=CC(=O)N1c1ccc2c(c1)OCO2
inactive: endpoint: mean survival time, dose: 6.25 mg/kg/injection, schedule: Q01DX009 (ip), vehicle: saline with Tween-80 91 % of control | endpoint: mean survival time, dose: 12.5 mg/kg/injection, schedule: Q01DX009 (ip), vehicle: saline with Tween-80 86 % of control

Cc1ccc(CN(C)N=Nc2ccc(C(=O)O)cc2)cc1
inactive: endpoint: mean survival time, dose: 25.0 mg/kg/injection, schedule: Q01DX009 (ip), vehicle: other 91 % of control | endpoint: mean survival time, dose: 50.0 mg/kg/injection, schedule: Q01DX009 (ip), vehicle: other 87 % of control | endpoint: mean survival time, dose: 100.0 mg/kg/injection, schedule: Q01DX009 (ip), vehicle: other 91 % of control | [9] 87 % of control

C=CCC(O)CCCC (stereo unspecified)
inactive: endpoint: mean survival time, dose: 50.0 mg/kg/injection, schedule: Q01DX009 (ip), vehicle: saline with Tween-80 103 % of control | [4] 103 % of control | [5] 103 % of control

c1cn[nH]c1
inactive: endpoint: median survival time, dose: 12.5 mg/kg/injection, schedule: Q01DX009 (ip), vehicle: saline + alcohol 103 % of control and 105 % of control | endpoint: median survival time, dose: 12.5 mg/kg/injection, schedule: Q01DX009 (ip), vehicle: saline 95 % of control | endpoint: median survival time, dose: 25.0 mg/kg/injection, schedule: Q01DX009 (ip), vehicle: saline + alcohol 101 % of control and 110 % of control | endpoint: median survival time, dose: 25.0 mg/kg/injection, schedule: Q01DX009 (ip), vehicle: saline 102 % of control | endpoint: median survival time, dose: 50.0 mg/kg/injection, schedule: Q01DX009 (ip), vehicle: saline + alcohol 121 % of control and 105 % of control | endpoint: median survival time, dose: 50.0 mg/kg/injection, schedule: Q01DX009 (ip), vehicle: saline 112 % of control | endpoint: median survival time, dose: 100.0 mg/kg/injection, schedule: Q01DX009 (ip), vehicle: saline + alcohol 117 % of control | endpoint: median survival time, dose: 200.0 mg/kg/injection, schedule: Q01DX009 (ip), vehicle: saline + alcohol 90 % of control and 102 % of control | endpoint: median survival time, dose: 200.0 mg/kg/injection, schedule: Q01DX009 (ip), vehicle: saline 90 % of control

NC(CCc1cc(O)ccc1O)C(=O)O (stereo unspecified)
inactive: [10] 98 % of control | [11] 98 % of control | endpoint: mean survival time, dose: 400.0 mg/kg/injection, schedule: Q01DX009 (ip), vehicle: saline 102 % of control

Cc1ccc(S(=O)(=O)Nc2ccc(I)cc2F)cc1
inactive: [4] 101 % of control | [5] 97 % of control | [6] 97 % of control

CN(C)N=Nc1c(-c2cccs2)n[nH]c1C(F)(F)F
inactive: endpoint: mean survival time, dose: 75.0 mg/kg/injection, schedule: Q01DX001 (ip), vehicle: other 103 % of control | endpoint: mean survival time, dose: 150.0 mg/kg/injection, schedule: Q01DX001 (ip), vehicle: other 103 % of control | endpoint: mean survival time, dose: 300.0 mg/kg/injection, schedule: Q01DX001 (ip), vehicle: other 105 % of control

FC(F)(F)C1(C(F)(F)F)C/C(=N/Nc2ccccc2)CO1
inactive: endpoint: mean survival time, dose: 100.0 mg/kg/injection, schedule: Q04DX003 (ip), vehicle: other 101 % of control | endpoint: mean survival time, dose: 200.0 mg/kg/injection, schedule: Q04DX003 (ip), vehicle: other 101 % of control | endpoint: mean survival time, dose: 400.0 mg/kg/injection, schedule: Q04DX003 (ip), vehicle: other 101 % of control

O=[N+]([O-])c1ccc(SC2CCC(Cl)C3CCCCC23)c([N+](=O)[O-])c1 (stereo unspecified)
inactive: endpoint: mean survival time, dose: 25.0 mg/kg/injection, schedule: Q04DX002 (ip), vehicle: saline with Tween-80 93 % of control | endpoint: mean survival time, dose: 50.0 mg/kg/injection, schedule: Q04DX002 (ip), vehicle: saline with Tween-80 90 % of control | [1] 86 % of control and 93 % of control | [3] 86 % of control

[N-]=[N+]=CC(=O)NCC(=O)NCCO
inactive: endpoint: mean survival time, dose: 50.0 mg/kg/injection, schedule: Q01DX001 (ip), vehicle: other 101 % of control | endpoint: mean survival time, dose: 100.0 mg/kg/injection, schedule: Q01DX001 (ip), vehicle: other 103 % of control | endpoint: mean survival time, dose: 200.0 mg/kg/injection, schedule: Q01DX001 (ip), vehicle: other 106 % of control | [9] 103 % of control | endpoint: mean survival time, dose: 400.0 mg/kg/injection, schedule: Q01DX001 (ip), vehicle: other 109 % of control | endpoint: mean survival time, dose: 600.0 mg/kg/injection, schedule: Q01DX009 (ip), vehicle: other 121 % of control | endpoint: mean survival time, dose: 1000.0 mg/kg/injection, schedule: Q01DX009 (ip), vehicle: other 114 % of control

C[C@]12CCC(=O)C=C1CC[C@H]1[C@@H]3CC[C@](O)(C(=O)CF)[C@@]3(C)C[C@H](O)[C@@]12F
inactive: endpoint: mean survival time, dose: 50.0 mg/kg/injection, schedule: Q01DX001 (sc), vehicle: saline sonified 103 % of control | endpoint: mean survival time, dose: 50.0 mg/kg/injection, schedule: Q04DX003 (sc), vehicle: Klucel (hydroxypropylcellulose) (HPC) 104 % of control | endpoint: mean survival time, dose: 100.0 mg/kg/injection, schedule: Q01DX001 (sc), vehicle: saline sonified 101 % of control | endpoint: mean survival time, dose: 100.0 mg/kg/injection, schedule: Q04DX003 (sc), vehicle: Klucel (hydroxypropylcellulose) (HPC) 102 % of control | endpoint: mean survival time, dose: 200.0 mg/kg/injection, schedule: Q01DX001 (sc), vehicle: saline sonified 103 % of control | endpoint: mean survival time, dose: 200.0 mg/kg/injection, schedule: Q04DX003 (sc), vehicle: Klucel (hydroxypropylcellulose) (HPC) 104 % of control

CC1CCC2(C(=O)O)CCC3(C)C(=CCC4C5(C)CCC(O)C(C)(C)C5CCC43C)C2C1C (stereo unspecified)
inactive: endpoint: mean survival time, dose: 100.0 mg/kg/injection, schedule: Q01DX001 (ip), vehicle: saline 98 % of control | endpoint: mean survival time, dose: 200.0 mg/kg/injection, schedule: Q01DX001 (ip), vehicle: saline 98 % of control | endpoint: mean survival time, dose: 400.0 mg/kg/injection, schedule: Q01DX001 (ip), vehicle: saline 96 % of control

CS(=O)(=O)OCCN(CCOS(C)(=O)=O)c1ccc(N=O)c(Cl)c1
inactive: [7] 124 % of control

C=CC=O
inactive: endpoint: mean survival time, dose: 1.87 mg/kg/injection, schedule: Q01DX009 (ip), vehicle: saline 92 % of control

CC(C)(O)CCC(C)(O)C1CCC2C3CCC4CC(O)CCC4(C)C3CCC21C (stereo unspecified)
inactive: [12] 92 % of control | [13] 93 % of control | [14] 86 % of control

CC1CN(Br)C(=O)N(Br)C1=O (stereo unspecified)
inactive: endpoint: mean survival time, dose: 75.0 mg/kg/injection, schedule: Q01DX001 (ip), vehicle: saline 102 % of control | endpoint: mean survival time, dose: 150.0 mg/kg/injection, schedule: Q01DX001 (ip), vehicle: saline 100 % of control

COC(=O)C(Cc1c[nH]c2ccccc12)NC(=O)C(Cc1c[nH]c2ccccc12)NC(=O)OC(C)(C)C (stereo unspecified)
inactive: [12] 87 % of control | [4] 98 % of control | [13] 96 % of control | [5] 96 % of control | [14] 100 % of control | [6] 104 % of control

NC(Cc1ccccc1)C(=O)NC1(C(=O)O)CCCC1 (stereo unspecified) (H-[ξF]-[Ac5c]-OH)
inactive: endpoint: mean survival time, dose: 50.0 mg/kg/injection, schedule: Q01DX009 (ip), vehicle: saline 100 % of control | [10] 107 % of control | [11] 107 % of control

COc1cc(CO)ccc1OCc1ccccc1
inactive: [7] 98 % of control | [8] 96 % of control | endpoint: mean survival time, dose: 400.0 mg/kg/injection, schedule: Q04DX003 (ip), vehicle: saline with Tween-80 105 % of control

CCN1/C(=C\c2ccc3cc(OC)ccc3[n+]2CC)[Se]c2ccc(OC)cc21
inactive: endpoint: mean survival time, dose: 9.5 mg/kg/injection, schedule: Q01DX001 (ip), vehicle: other 86 % of control

CCOc1ccc(OCC)c(NC(=O)Nc2ccc(OC)cc2)c1
inactive: [1] 89 % of control | [2] 93 % of control | [3] 86 % of control
